Data taken from patent US11345702B1 (Myoforte Therapeutics, Inc., priority 2020, dated 2022).

How the values were obtained:
[1] = molecular target: 15-PGDH/HPGD (Homo sapiens (Human), UniProt P15428); test: hPGDH inhibitor screening biochemical assay; conditions: read-out: hPGDH: Average IC50
Summary of the method: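 Recombinant human 15-PGDH (10 nM) pre-incubated with compounds 10 min at 37 °C, then 15 μM PGE2 and 0.25 mM NAD+ added for 10 min at room temperature in 50 mM Tris-HCl pH 7.5, 0.01% Tween 20. NADH fluorescence read at ex/em 340/485 nm. IC50 from 10-point curves, four-parameter fit versus 1% DMSO.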

[2] = Liver microsome stability assay (MLM); format: in vitro ADME; conditions: mouse liver microsomes
Protocol: A microsomal mixture (microsomes and Kphos buffer) was prepared at a concentration of 1.428 mg/mL in 2 mL tubes. To this microsomal mixture 1.6 μL (1 mM) of test compound and positive control were spiked; from this mixture, 70 μL was transferred to 96 well plate and pre-incubated at 37° C. for 5 min. After pre-incubation, the zero minute time point reaction was stopped using 100 μL of ice-cold acetonitrile containing internal standard and […] (3.33 mM in Kphos buffer) was added. The 45 minute time point reaction was initiated by addition of 30 μL of NADPH (3.33 mM in Kphos buffer) and incubated at 37° C. for 15 and 45 min. Reactions without NADPH and buffer controls (minus NADPH) at 0, 15, and 45 minutes were also incubated to rule out non-NADPH metabolism or chemical instability in the incubation buffer. Incubation reactions were stopped with 100 μL of ice-cold acetonitrile containing internal standard. The plates were centrifuged at 4000 RPM for 15 min and 100 μL aliquots were submitted for analysis by LC-MS/MS. (Verapamil in human liver microsomes (HLM) and rat liver microsomes (RLM) was used as positive controls. Imipramine in mouse liver microsomes (MLM) was used as a positive control.) Samples were monitored for parent compound disappearance in MRM mode (multiple reaction monitoring) using LC-MS/MS. The peak area ratios of analyte versus internal standard were used to calculate the % remaining at the end of 45 minutes in the presence of NADPH.

15-PGDH/HPGD, sequence (P15428 whole entry): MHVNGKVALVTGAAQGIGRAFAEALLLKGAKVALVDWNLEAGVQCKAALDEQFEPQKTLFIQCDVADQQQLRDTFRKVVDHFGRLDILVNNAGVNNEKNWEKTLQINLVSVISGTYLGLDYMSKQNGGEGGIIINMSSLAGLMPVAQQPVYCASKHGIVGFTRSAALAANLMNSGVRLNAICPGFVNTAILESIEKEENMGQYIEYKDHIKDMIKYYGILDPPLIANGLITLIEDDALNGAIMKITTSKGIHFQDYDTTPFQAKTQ

SMILES	IC50 [1]	MLM + NADPH (% remaining at 45 min) [2]
NCCNC(=O)c1cccc(-n2ccc3cc(C(=O)N4CCC(F)(F)CC4)cnc32)c1 [MF-DH-467, N-(2-aminoethyl)-3-(5-(4,4-difluoropiperidine-1-carbonyl)-1H-pyrrolo[2,3-b]pyridin-1-yl)benzamide]	100 to 1000 nM	90%
Cc1nc(-c2ccc(-n3ccc4cc(C(=O)N5CCC(F)(F)CC5)cnc43)cn2)no1 [MF-DH-471, (4,4-difluoropiperidin-1-yl)(1-(6-(5-methyl-1,2,4-oxadiazol-3-yl)pyridin-3-yl)-1H-pyrrolo[2,3-b]pyridin-5-yl)methanone]	< 100 nM	99%
O=C(c1cnc2c(ccn2-c2ccc3[nH]ncc3c2)c1)N1CCC(F)(F)CC1 [MF-DH-396]	< 100 nM	4%
N/C(=N\O)c1cccc(-n2ccc3cc(C(=O)N4CCCCC4)cnc32)c1 [MF-DH-400]	< 100 nM	0%
O=C(Nc1ccn(C2CC2)n1)c1cncc(-n2ccc3cc(C(=O)N4CCC(F)(F)CC4)cnc32)c1 [MF-DH-500, N-(1-cyclopropyl-1H-pyrazol-3-yl)-5-(5-(4,4-difluoropiperidine-1-carbonyl)-1H-pyrrolo[2,3-b]pyridin-1-yl)nicotinamide]	< 100 nM	60%
CC(C)(C)CNC(=O)c1ccc(-n2ccc3cc(C(=O)N4CCC(F)(F)CC4)cnc32)cn1 [MF-DH-438, 5-(5-(4,4-difluoropiperidine-1-carbonyl)-1H-pyrrolo[2,3-b]pyridin-1-yl)-N-neopentylpicolinamide]	< 100 nM	63%
Cc1nc(-c2ccc(-n3c(CCC(C)(C)O)cc4cc(C(=O)N5CCC(F)(F)CC5)cnc43)cc2)no1 [MF-DH-542, (4,4-difluoropiperidin-1-yl)(2-(3-hydroxy-3-methylbutyl)-1-(4-(5-methyl-1,2,4-oxadiazol-3-yl)phenyl)-1H-pyrrolo[2,3-b]pyridin-5-yl)methanone]	< 100 nM	68%
CS(=O)(=O)NCCNC(=O)c1ccc(-n2ccc3cc(C(=O)N4CCC(F)(F)CC4)cnc32)cc1 [MF-DH-409, 4-(5-(4,4-difluoropiperidine-1-carbonyl)-1H-pyrrolo[2,3-b]pyridin-1-yl)-N-(2-(methylsulfonamido)ethyl)benzamide]	< 100 nM	78%
CCOC(=O)Nc1cncc(-n2ccc3cc(C(=O)N4CCC(F)(F)CC4)cnc32)c1 [MF-DH-485, ethyl (5-(5-(4,4-difluoropiperidine-1-carbonyl)-1H-pyrrolo[2,3-b]pyridin-1-yl)pyridin-3-yl)carbamate]	< 100 nM	80%

Next, values leading:

IC50 [1]	MLM + NADPH (% remaining at 45 min) [2]	SMILES
< 100 nM	91%	CC(C)(O)CCc1cc2cc(C(=O)N3CCC(F)(F)CC3)cnc2n1-c1ccc(C(=O)O)cc1 [MF-DH-538, 4-(5-(4,4-difluoropiperidine-1-carbonyl)-2-(3-hydroxy-3-methylbutyl)-1H-pyrrolo[2,3-b]pyridin-1-yl)benzoic acid]
< 100 nM	103%	NC(=O)c1cncc(-n2cc(Cl)c3cc(C(=O)N4CCC(F)(F)CC4)cnc32)c1 [MF-DH-482]
< 100 nM	26%	NC(=O)c1ccc(-n2cc(Cl)c3cc(C(=O)N4CCC(F)CC4)cnc32)cc1 [MF-DH-382, 4-(3-chloro-5-(4-fluoropiperidine-1-carbonyl)-1H-pyrrolo[2,3-b]pyridin-1-yl)benzamide]
< 100 nM	12%	NC(=O)c1ccc(-n2cc(Cl)c3cc(C(=O)N4CCCCC4)cnc32)cc1 [MF-DH-383, 4-(3-chloro-5-(piperidine-1-carbonyl)-1H-pyrrolo[2,3-b]pyridin-1-yl)benzamide]
< 100 nM	97%	CS(=O)(=O)NC(=O)c1ccc(-n2ccc3cc(C(=O)N4CCC(F)(F)CC4)cnc32)cc1 [MF-DH-428, 4-(5-(4,4-difluoropiperidine-1-carbonyl)-1H-pyrrolo[2,3-b]pyridin-1-yl)-N-(methylsulfonyl)benzamide]
